# Experimental data taken from ChEMBL document CHEMBL5512696, “Discovery of a Novel ASM Direct Inhibitor with a 1,5-Diphenyl-pyrazole Scaffold and Its Antidepressant Mechanism of Action” (J Med Chem, 2024).
# Active and inactive are the calls of the source. No cut-off for these calls is given here.
# Key:
# [1] = Ratio of drug concentration in male ICR mouse brain to plasma at 1 mg/kg, iv measured after 60 mins by LC-MS/MS analysis; format: ADME, organism-based; conditions: read-out: BPR
# Mus musculus [2] = assay: Improvement in depression-like behavior in ICR mouse model of chronic unpredictable mild stress assessed as reduction in immobility time at 6 to 24 mg/kg, ip administered once a day for 10 days post 8 week of chronic unpredictable mild stress by tail suspension test; format: functional, organism-based; conditions: dose 6-24 mg/kg, time 10.0 day
# Mus musculus [3] = assay: Improvement in depression-like behavior in ICR mouse model of chronic unpredictable mild stress assessed as reduction in immobility time at 6 to 24 mg/kg, ip administered once a day for 10 days post 8 week of chronic unpredictable mild stress by forced swim test; format: functional, organism-based; conditions: dose 6-24 mg/kg, time 10.0 day
# Mus musculus [4] = assay: Improvement in depression-like behavior in ip dosed ICR mouse model of chronic unpredictable mild stress assessed as improvement in sugar consumption administered once a day for 10 days post 8 week of chronic unpredictable mild stress by sugar preference test; format: functional, organism-based; conditions: dose 6-24 mg/kg, time 10.0 day
# Mus musculus [5] = assay: Improvement in depression-like behavior in ICR mouse model of chronic unpredictable mild stress assessed as increase in total distance traveled in center at 6 to 24 mg/kg, ip administered once a day for 10 days post 8 week of chronic unpredictable mild stress by open field test; format: functional, organism-based; conditions: dose 6-24 mg/kg, time 10.0 day
# Mus musculus [6] = assay: (§1) Antidepressant activity in ICR mouse model of chronic unpredictable mild stress assessed as downregulation of neuronal apoptosis by measuring improvement in Bcl-2/Bax ratio in hippocampus at 6 to 24 mg/kg, ip administered once a day for 1 week post 8 week of chronic unpredictable mild stress and measured after 1 week by Western blot analysis; format: functional, organism-based; conditions: dose 6-24 mg/kg, time 2.0 weeks
# Mus musculus [7] = assay: (§2) Antidepressant activity in ip dosed ICR mouse model of chronic unpredictable mild stress assessed as downregulation of neuronal apoptosis by measuring reduction in caspase-3 protein level in hippocampus administered once a day for 1 week post 8 week of chronic unpredictable mild stress and measured after 1 week by Western blot analysis; format: functional, organism-based; conditions: dose 6-24 mg/kg, time 2.0 weeks
# Mus musculus [8] = assay: as §2, with “caspase-9” for “caspase-3”; format: functional, organism-based; conditions: dose 6-24 mg/kg, time 2.0 weeks
# Mus musculus [9] = assay: as §1, with “increase” for “improvement”, “BDNF protein level” for “Bcl-2/Bax ratio”; format: functional, organism-based; conditions: dose 6-24 mg/kg, time 2.0 weeks
# Mus musculus [10] = assay: (§3) Antidepressant activity in ICR mouse model of chronic unpredictable mild stress assessed as reduction in ceramide level in cerebral cortex at 6 to 12 mg/kg, ip administered once a day for 1 week post 8 week of chronic unpredictable mild stress and measured after 1 week by ELISA; format: functional, organism-based; conditions: dose 6-12 mg/kg, time 2.0 weeks
# Mus musculus [11] = assay: Antidepressant activity in ICR mouse model of chronic unpredictable mild stress assessed as reduction in ceramide level in hippocampus at 6 to 12 mg/kg, ip administered once a day for 1 week post 8 week of chronic unpredictable mild stress and measured after 1 week by ELISA; format: functional, organism-based; conditions: dose 6-12 mg/kg, time 2.0 weeks
# Mus musculus [12] = assay: (§4) Antidepressant activity in ip dosed ICR mouse model of chronic unpredictable mild stress assessed as reduction in sphingosine-1-phosphate level in cerebral cortex administered once a day for 1 week post 8 week of chronic unpredictable mild stress and measured after 1 week by ELISA; format: functional, organism-based; conditions: dose 6-12 mg/kg, time 2.0 weeks
# Mus musculus [13] = assay: Antidepressant activity in ip dosed ICR mouse model of chronic unpredictable mild stress assessed as reduction in sphingosine-1-phosphate level in hippocampus administered once a day for 1 week post 8 week of chronic unpredictable mild stress and measured after 1 week by ELISA; format: functional, organism-based; conditions: dose 6-12 mg/kg, time 2.0 weeks
# Mus musculus [14] = assay: Antidepressant activity in ICR mouse model of chronic unpredictable mild stress assessed as reduction in sphingomyelin level in cerebral cortex at 6 to 12 mg/kg, ip administered once a day for 1 week post 8 week of chronic unpredictable mild stress and measured after 1 week by ELISA; format: functional, organism-based; conditions: dose 6-12 mg/kg, time 2.0 weeks
# Mus musculus [15] = assay: Antidepressant activity in ICR mouse model of chronic unpredictable mild stress assessed as reduction in sphingomyelin level in hippocampus at 6 to 12 mg/kg, ip administered once a day for 1 week post 8 week of chronic unpredictable mild stress and measured after 1 week by ELISA; format: functional, organism-based; conditions: dose 6-12 mg/kg, time 2.0 weeks
# Mus musculus [16] = assay: Antidepressant activity in ICR mouse model of chronic unpredictable mild stress assessed as reduction in sphingomyelin level in hippocampus at 12 mg/kg, ip administered once a day for 1 week post 8 week of chronic unpredictable mild stress and measured after 1 week by ELISA; format: functional, organism-based; conditions: time 2.0 weeks
# Mus musculus [17] = assay: as §3, with “oxidative stress by measuring reduction in MDA” for “ceramide”; format: functional, organism-based; conditions: dose 6-12 mg/kg, time 2.0 weeks
# Mus musculus [18] = assay: as §4, with “oxidative stress by measuring increase in SOD” for “sphingosine-1-phosphate”; format: functional, organism-based; conditions: dose 6-12 mg/kg, time 2.0 weeks
# Mus musculus [19] = assay: as §4, with “oxidative stress by measuring increase in GSH” for “sphingosine-1-phosphate”; format: functional, organism-based; conditions: dose 6-12 mg/kg, time 2.0 weeks
# Mus musculus [20] = assay: Antineuroinflammatory activity in ip dosed ICR mouse model of chronic unpredictable mild stress assessed as reduction in TNFalpha level in serum administered once a day for 1 week post 8 week of chronic unpredictable mild stress and measured after 1 week by ELISA; format: functional, organism-based; conditions: dose 6-12 mg/kg, time 2.0 weeks
# Mus musculus [21] = assay: Antineuroinflammatory activity in ip dosed ICR mouse model of chronic unpredictable mild stress assessed as reduction in IL-1beta level in serum administered once a day for 1 week post 8 week of chronic unpredictable mild stress and measured after 1 week by ELISA; format: functional, organism-based; conditions: dose 6-12 mg/kg, time 2.0 weeks
# Mus musculus [22] = assay: Antineuroinflammatory activity in ip dosed ICR mouse model of chronic unpredictable mild stress assessed as reduction in IL-6 level in serum administered once a day for 1 week post 8 week of chronic unpredictable mild stress and measured after 1 week by ELISA; format: functional, organism-based; conditions: dose 6-12 mg/kg, time 2.0 weeks
# SH-SY5Y = assay: Neuroprotective activity against corticosterone induced human SH-SY5Y cells assessed as protection against corticosterone induced morphological changes measured after 24 hrs; format: functional, cell-based; conditions: dose 5-20 µM
# Mus musculus [23] = species on record: Mus musculus; conditions: ICR, dose 6-24 mg/kg, route ip, time 2.0 weeks
# Description: In vivo inhibition of ASM in ip dosed ICR mouse model of chronic unpredictable mild stress assessed as reduction in ASM activity in hippocampus administered once a day for 1 week post 8 week of chronic unpredictable mild stress and measured after 1 week by fluorescence based analysis
# Mus musculus [24] = species on record: Mus musculus; conditions: ICR, dose 6-12 mg/kg, route ip, time 2.0 weeks
# Description: In vivo inhibition of ASM in ICR mouse model of chronic unpredictable mild stress assessed as increase in 5-HT uptake in hippocampus at 6 to 12 mg/kg, ip administered once a day for 1 week post 8 week of chronic unpredictable mild stress and measured after 1 week by ELISA
smiles,measurement,setting,value
O=C(NO)c1cc(-c2ccc(Br)cc2)n(-c2ccc(Cl)cc2)n1,Kp at 1 h,[1],0.57
same,Activity,Mus musculus [2],Active
same,Activity,Mus musculus [3],Active
same,Activity,Mus musculus [4],Active
same,Activity,Mus musculus [5],Active
same,Activity,Mus musculus [6],Active
same,Activity,Mus musculus [7],Dose-Dependent Effect
same,Activity,Mus musculus [8],Dose-Dependent Effect
same,Activity,Mus musculus [9],Active
same,Activity,Mus musculus [10],Active
same,Activity,Mus musculus [11],Active
same,Activity,Mus musculus [12],Dose-Dependent Effect
same,Activity,Mus musculus [13],Dose-Dependent Effect
same,Activity,Mus musculus [14],Active
same,Activity,Mus musculus [15],Active
same,Activity,Mus musculus [16],Active
same,Activity,Mus musculus [17],Active
same,Activity,Mus musculus [18],Dose-Dependent Effect
same,Activity,Mus musculus [19],Dose-Dependent Effect
same,Activity,Mus musculus [20],Dose-Dependent Effect
same,Activity,Mus musculus [21],Dose-Dependent Effect
same,Activity,Mus musculus [22],Dose-Dependent Effect
same,Activity,SH-SY5Y,Dose-Dependent Effect
same,inhibition,Mus musculus [23],Dose-Dependent Effect
same,inhibition,Mus musculus [24],Active
